Assay results from patent US8697694B2, “Substituted pyridine and pyrimidine derivatives and their use in treating viral infections” (priority 2008, dated 2014).

system: HCV replicon cells; experiment: Cell-based HCV replicon assay (replicon RNA level by real time PCR, Taqman); conditions: Hepatitis C virus, 72 h, HCV replicon cells, harvested day 3, replicon RNA by real time PCR; given as number; read-out: EC90 (μM) range
Summary of the method: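 HCV replicon cells treated 3 days with 10 serial 2-fold compound dilutions (top 25 μM to 1 μM; 0.5% DMSO, 10% FBS). Replicon RNA quantified by multiplex Taqman RT-PCR (NS5B amplicon, GAPDH control); EC50 and EC90 = concentrations giving ΔCT of 1 and 3.2 over baseline.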

Compound	EC90 [µM]
CCCOc1cc2cc(-c3c(C)nc(NCC4CC4)nc3N[C@@H]3C[C@H](CO)[C@@H](O)[C@H]3O)oc2c(C)n1 [Example 38]	0.25
CCOc1cc2cc(-c3c(C)nc(NCc4nccs4)nc3N[C@@H]3C[C@H](CO)[C@@H](O)[C@H]3O)oc2c(C)n1 [Example 24]	0.02

same assay, conditions: Hepatitis C virus, 72 h, HCV replicon cells, harvested day 3, replicon RNA by real time PCR; reported as range class; read-out: EC90 (μM) range

Compound	EC90 [µM]
COC[C@H]1C[C@@H](Nc2nc(N(C)C)nc(Cl)c2-c2nc3ccccc3s2)[C@H](O)[C@@H]1O [Example 121]	< 0.5
CCCc1cc2cc(-c3c(Cl)nc(N)nc3N[C@@H]3C[C@H](CO)[C@@H](O)[C@H]3O)oc2cn1 [Example 410]	< 0.5
COCCCNc1nc(C)c(-c2nc3ccccc3s2)c(N[C@@H]2C[C@H](CO)[C@@H](O)[C@H]2O)n1 [Example 223]	< 0.5
CN(C)c1ccc2sc(-c3c(Cl)nc(N(C)C)nc3N[C@@H]3C[C@H](CO)[C@@H](O)[C@H]3O)nc2c1 [Example 204]	> 5
Nc1nc(Cl)c(-c2ncco2)c(N[C@@H]2C[C@H](CO)[C@@H](O)[C@H]2O)n1 [Example 106]	> 5
Nc1nc(Cl)c(-c2cc3cc([N+](=O)[O-])cnc3o2)c(N[C@@H]2C[C@H](CO)[C@@H](O)[C@H]2O)n1 [Example 302]	0.5 to 5
CCCOc1cc2cc(-c3c(C)nc(NCCOC)nc3N[C@@H]3C[C@H](CO)[C@@H](O)[C@H]3O)oc2cn1 [Example 60]	> 5
Nc1nc(N[C@@H]2C[C@H](CO)[C@@H](O)[C@H]2O)c(-c2ncccn2)c(-c2ncccn2)n1 [Example 160]	> 5
Nc1nc(Cl)c(-c2cnccn2)c(N[C@@H]2C[C@H](CO)[C@@H](O)[C@H]2O)n1 [Example 159]	> 5
Nc1nc(Cl)c(-c2cc3cc(-c4nc5ccccc5o4)ccc3o2)c(N[C@@H]2C[C@H](CO)[C@@H](O)[C@H]2O)n1 [Example 180]	> 5

same assay, conditions: Hepatitis C virus, 72 h, HCV replicon cells, harvested on day 3, replicon RNA by real time PCR; calculated EC90 reported as range class; read-out: EC90 (μM) range

Compound	EC90 [µM]
Cc1nc(NCc2ccc(F)cc2)nc(N[C@@H]2C[C@H](CO)[C@@H](O)[C@H]2O)c1-c1nc2ccccc2s1 [Example 238]	< 0.5
CN(C)c1nc(N[C@@H]2C[C@H](CO)[C@@H](O)[C@H]2O)c(-c2nc3ccccc3s2)c(C2CC2)n1 [Example 416]	0.5 to 5
Cc1nc(NCCN2CCOCC2)nc(N[C@@H]2C[C@H](CO)[C@@H](O)[C@H]2O)c1-c1nc2ccccc2s1 [Example 252]	< 0.5
Cc1nc(NCc2cc3ccccc3s2)nc(N[C@@H]2C[C@H](CO)[C@H]3OC(C)(C)O[C@H]32)c1-c1nc2ccccc2s1 [Example 475]	0.5 to 5
Cc1cc2cc(-c3c(Cl)nc(NCC(F)(F)F)nc3N[C@@H]3C[C@H](CO)[C@@H](O)[C@H]3O)oc2c(C)n1 [Example 456]	< 0.5
Cc1cc(C)cc(CNc2nc(C)c(-c3nc4ccccc4s3)c(N[C@@H]3C[C@H](CO)[C@@H](O)[C@H]3O)n2)c1 [Example 713]	< 0.5

same assay, conditions: Hepatitis C virus, 72 h, HCV replicon cells, replicon RNA level by real time PCR (Taqman), day 3; calculated EC90; read-out: EC90 (μM) range

Compound	EC90 [µM]
Cc1nc(N[C@@H](C2CC2)C(F)(F)F)nc(N[C@@H]2C[C@H](CO)[C@@H](O)[C@H]2O)c1-c1nc2ccccc2s1 [Example 2013]	0.5 to 5

same assay, conditions: Hepatitis C virus, 72 h, HCV replicon cells, replicon RNA level by real time PCR (Taqman), harvested on day 3; calculated EC90 reported as range class; read-out: EC90 (μM) range

Compound	EC90 [µM]
Cc1nc(NCC(=O)O)nc(N[C@@H]2C[C@H](CO)[C@@H](O)[C@H]2O)c1-c1nc2ccccc2s1 [Example 1011]	0.5 to 5
Cc1nc(NCc2cccs2)nc(N2CCC[C@H]2CO)c1-c1nc2ccccc2s1 [Example 1224]	> 5
COc1cc(OC)cc(Oc2nc(C)c(-c3nc4ccccc4s3)c(N[C@@H]3C[C@H](CO)[C@@H](O)[C@H]3O)n2)c1 [Example 1211]	> 5
Cc1ccccc1Nc1nc(C)c(-c2nc3ccccc3s2)c(N[C@@H]2C[C@H](CO)[C@@H](O)[C@H]2O)n1 [Example 1047]	0.5 to 5
Cc1nc(NCc2ccccc2)nc(N[C@@H]2C[C@H](CO)[C@@H](O)[C@H]2O)c1-c1nc2cnccc2s1 [Example 540]	< 0.5
COc1ccccc1CNc1nc(C)c(-c2nc3ccccc3s2)c(N[C@@H]2C[C@H](CO)[C@@H](O)[C@H]2O)n1 [Example 1207]	0.5 to 5
Cc1nc(NCC(C)(C)C)nc(N2CCC[C@H]2CO)c1-c1nc2ccccc2s1 [Example 1223]	> 5
Cc1nc(Nc2cc[nH]n2)nc(N[C@@H]2C[C@H](CO)[C@@H](O)[C@H]2O)c1-c1nc2ccccc2s1 [Example 1222]	> 5
COc1ccc(CNc2nc(C)c(-c3nc4ccccc4s3)c(N[C@@H]3CC[C@@H](O)[C@H]3O)n2)cc1OC [Example 1205]	0.5 to 5
Cc1nc(N(C)Cc2ccccc2)nc(N[C@@H]2C[C@H](CO)[C@@H](O)[C@H]2O)c1-c1nc2cnccc2s1 [Example 1313]	0.5 to 5
Cc1ccc(Nc2nc(C)c(-c3nc4ccccc4s3)c(N[C@@H]3C[C@H](CO)[C@@H](O)[C@H]3O)n2)cc1 [Example 1045]	> 5
Cc1nc(N[C@@H](C)C(C)(C)C)nc(N[C@@H]2C[C@H](CO)[C@@H](O)[C@H]2O)c1-c1nc2cnccc2s1 [Example 1310]	0.5 to 5
Cc1nc(NCc2cccs2)nc(N[C@@H]2C[C@H](CNS(C)(=O)=O)[C@@H](O)[C@H]2O)c1-c1nc2ccccc2s1 [Example 1330]	< 0.5
COc1ccc(Nc2nc(C)c(-c3nc4ccccc4s3)c(N[C@@H]3C[C@H](CO)[C@@H](O)[C@H]3O)n2)c(OC)c1 [Example 1235]	0.5 to 5
COCCNc1nc(C)c(-c2nc3cnccc3s2)c(N[C@@H]2C[C@H](CO)[C@@H](O)[C@H]2O)n1 [Example 526]	< 0.5
COc1ccc(Nc2nc(C)c(-c3nc4ccccc4s3)c(N[C@@H]3C[C@H](CO)[C@@H](O)[C@H]3O)n2)cc1 [Example 1221]	0.5 to 5
CCOc1nc(C)cc2cc(-c3c(C)nc(NCC4CC4)nc3N[C@@H]3C[C@H](CO)[C@@H](O)[C@H]3O)oc12 [Example 1238]	0.5 to 5

same assay, conditions: Hepatitis C virus, 72 h, HCV replicon cells, replicon RNA level by real time PCR, harvested day 3; read-out: EC90 (μM) range

Compound	EC90 [µM]
Cc1nc(NCC(F)(F)F)nc(NC2CCNC2)c1-c1nc2ccccc2s1 (centres unmarked) [Example 1517]	> 5
Cc1nc(N[C@H](C)c2ccc(OC(F)(F)F)cc2)nc(N[C@@H]2C[C@@H](C(C)O)[C@@H](O)[C@H]2O)c1-c1nc2cnccc2s1 (some centres unmarked) [Example 1652]	< 0.5
Cc1ccsc1CCNc1nc(C)c(-c2nc3cnccc3s2)c(N[C@@H]2C[C@H](CO)[C@@H](O)[C@H]2O)n1 [Example 1707]	< 0.5
COc1nc(C)c(-c2nc3ccccc3s2)c(N[C@@H]2C[C@H](CO)[C@@H](O)[C@H]2O)n1 [Example 1907]	0.5 to 5
Cc1nc(NCC(F)(F)F)nc(N[C@@H]2C[C@H](C)[C@@H](O)[C@H]2O)c1-c1nc2cnccc2s1 [Example 1633]	< 0.5
Cc1nc(NCCc2cccs2)nc(N[C@@H]2C[C@H](CO)[C@@H](O)[C@H]2O)c1-c1nc2cnccc2s1 [Example 1806]	> 5
Cc1nc(N[C@H](C)C2CC2)nc(N[C@@H]2C[C@@H](C(C)O)[C@@H](O)[C@H]2O)c1-c1nc2cnccc2s1 (some centres unmarked) [Example 1651]	< 0.5
Cc1nc(NCC2CC2)nc(N[C@@H]2C[C@H](CO)[C@@H](O)[C@H]2O)c1-c1nc2c(OCC3CC3)nccc2s1 [Example 1338]	< 0.5
Cc1nc(NCC2CC2)nc(N[C@@H]2C[C@H](CO)[C@@H](O)C2(C)O)c1-c1nc2cnccc2s1 (some centres unmarked) [Example 1383]	< 0.5
Cc1nc(N[C@H](C)c2ccc(OC(F)(F)F)cc2)nc(N[C@@H]2C[C@H](CO)[C@@H](O)[C@H]2O)c1-c1nc2c(C)nccc2s1 [Example 1528]	< 0.5

same assay, conditions: Hepatitis C virus, 72 h, read-out: EC90 (μM) range

Compound	EC90 [µM]
Cc1nc(C#N)nc(N[C@@H]2C[C@H](CO)[C@H]3OC(C)(C)O[C@H]32)c1-c1nc2ccccc2s1 [Example 1901]	> 5
